Test results published in ChEMBL document CHEMBL4130574, “Discovery of novel 2,4-diarylaminopyrimidine analogues as ALK and ROS1 dual inhibitors to overcome crizotinib-resistant mutants including G1202R” (Eur J Med Chem, 2018).
Activity calls are given as the source filed them. The calls are words filed in the database; no cut-off is given here.

How the values were obtained:
[1] = test system: KARPAS-299; assay: Antiproliferative activity against human KARPAS299 cells harboring NPM-ALK after 72 hrs by MTT assay; format: functional, cell-based; details: KARPAS-299, 72 h
[2] = test system: HCC78; assay: Antiproliferative activity against human HCC78 cells harboring SLC34A2-ROS1 after 72 hrs by MTT assay; format: functional, cell-based; details: HCC78, 72 h
[3] = biological target: T1, ALK tyrosine kinase receptor (Homo sapiens, UniProt Q9UM73)
Description: Inhibition of recombinant human N-terminal GST-tagged ALK cytoplasmic domain (1058 to 1620 residues) expressed in baculovirus expression system using peptide substrate after 1 hr by mobility shift assay

[4] = biological target: T2, Proto-oncogene tyrosine-protein kinase ROS (Homo sapiens, UniProt P08922); assay: Inhibition of recombinant human N-terminal GST-tagged ROS1 cytoplasmic domain (1883 to 2347 residues) expressed in baculovirus expression system using peptide substrate after 1 hr by mobility shift assay
T2 sequence (P08922 whole entry, the tested form may be a part): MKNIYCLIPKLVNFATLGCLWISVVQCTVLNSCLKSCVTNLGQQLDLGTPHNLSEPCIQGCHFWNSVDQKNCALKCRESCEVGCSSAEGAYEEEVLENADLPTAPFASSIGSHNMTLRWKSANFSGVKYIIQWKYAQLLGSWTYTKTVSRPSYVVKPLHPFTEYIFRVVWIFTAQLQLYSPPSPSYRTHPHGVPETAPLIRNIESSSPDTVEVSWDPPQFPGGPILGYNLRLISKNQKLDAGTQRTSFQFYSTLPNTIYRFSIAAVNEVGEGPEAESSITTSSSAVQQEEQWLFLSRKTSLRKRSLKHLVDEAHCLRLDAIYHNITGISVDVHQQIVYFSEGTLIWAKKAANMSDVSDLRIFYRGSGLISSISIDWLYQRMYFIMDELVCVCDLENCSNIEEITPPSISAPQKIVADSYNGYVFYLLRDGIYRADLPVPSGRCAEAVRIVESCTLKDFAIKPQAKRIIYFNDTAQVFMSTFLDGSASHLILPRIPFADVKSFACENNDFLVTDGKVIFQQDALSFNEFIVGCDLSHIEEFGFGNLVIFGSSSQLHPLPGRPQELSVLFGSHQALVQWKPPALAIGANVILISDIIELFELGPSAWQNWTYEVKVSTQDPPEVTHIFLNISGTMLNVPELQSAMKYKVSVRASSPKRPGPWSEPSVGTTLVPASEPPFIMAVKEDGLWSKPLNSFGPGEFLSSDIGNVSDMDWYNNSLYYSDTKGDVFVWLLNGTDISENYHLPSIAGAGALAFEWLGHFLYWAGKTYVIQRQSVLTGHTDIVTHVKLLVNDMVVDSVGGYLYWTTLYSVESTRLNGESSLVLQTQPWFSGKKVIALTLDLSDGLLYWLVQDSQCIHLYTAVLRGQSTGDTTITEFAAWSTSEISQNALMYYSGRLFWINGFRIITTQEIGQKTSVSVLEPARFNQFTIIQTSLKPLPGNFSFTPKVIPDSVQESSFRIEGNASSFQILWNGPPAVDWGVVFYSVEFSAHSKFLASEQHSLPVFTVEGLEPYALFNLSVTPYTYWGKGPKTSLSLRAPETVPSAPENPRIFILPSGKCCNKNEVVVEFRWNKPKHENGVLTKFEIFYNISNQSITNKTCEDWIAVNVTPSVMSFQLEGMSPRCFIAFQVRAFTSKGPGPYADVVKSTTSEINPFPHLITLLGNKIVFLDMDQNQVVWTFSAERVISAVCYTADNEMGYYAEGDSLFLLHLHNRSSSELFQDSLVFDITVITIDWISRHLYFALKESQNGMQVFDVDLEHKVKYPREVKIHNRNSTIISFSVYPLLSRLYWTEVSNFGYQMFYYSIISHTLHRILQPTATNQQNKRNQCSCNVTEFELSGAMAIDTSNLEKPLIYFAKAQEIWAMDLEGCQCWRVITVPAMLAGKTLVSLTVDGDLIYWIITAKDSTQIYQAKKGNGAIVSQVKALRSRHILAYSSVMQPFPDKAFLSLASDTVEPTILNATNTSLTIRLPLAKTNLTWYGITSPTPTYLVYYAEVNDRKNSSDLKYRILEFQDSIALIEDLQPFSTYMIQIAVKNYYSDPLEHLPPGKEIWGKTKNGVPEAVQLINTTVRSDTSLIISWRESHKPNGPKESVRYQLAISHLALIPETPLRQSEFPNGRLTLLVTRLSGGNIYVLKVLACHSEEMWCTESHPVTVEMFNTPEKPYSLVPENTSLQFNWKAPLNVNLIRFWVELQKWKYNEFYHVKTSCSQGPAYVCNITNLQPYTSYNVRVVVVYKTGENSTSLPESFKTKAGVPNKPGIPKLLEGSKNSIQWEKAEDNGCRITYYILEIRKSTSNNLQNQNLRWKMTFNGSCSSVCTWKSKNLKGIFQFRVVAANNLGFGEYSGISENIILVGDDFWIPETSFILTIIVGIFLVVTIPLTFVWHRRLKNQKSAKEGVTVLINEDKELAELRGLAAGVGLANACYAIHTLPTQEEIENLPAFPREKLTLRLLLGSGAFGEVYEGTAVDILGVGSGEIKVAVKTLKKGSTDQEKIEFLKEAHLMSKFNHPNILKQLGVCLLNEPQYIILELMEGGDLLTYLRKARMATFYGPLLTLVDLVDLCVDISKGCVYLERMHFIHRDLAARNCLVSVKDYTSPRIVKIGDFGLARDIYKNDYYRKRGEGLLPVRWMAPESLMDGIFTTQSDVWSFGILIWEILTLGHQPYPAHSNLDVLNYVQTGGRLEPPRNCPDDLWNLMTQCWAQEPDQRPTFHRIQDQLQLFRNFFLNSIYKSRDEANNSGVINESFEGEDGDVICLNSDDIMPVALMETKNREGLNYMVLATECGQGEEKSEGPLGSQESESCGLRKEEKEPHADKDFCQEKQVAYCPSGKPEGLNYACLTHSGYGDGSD

[5] = biological target: Hepatocyte growth factor receptor (Homo sapiens, UniProt P08581); assay: Inhibition of recombinant human N-terminal GST-tagged c-MET cytoplasmic domain (956 to 1390 residues) expressed in baculovirus expression system using peptide substrate after 1 hr by mobility shift assay
Sequence of Hepatocyte growth factor receptor (P08581 whole entry, the tested form may be a part): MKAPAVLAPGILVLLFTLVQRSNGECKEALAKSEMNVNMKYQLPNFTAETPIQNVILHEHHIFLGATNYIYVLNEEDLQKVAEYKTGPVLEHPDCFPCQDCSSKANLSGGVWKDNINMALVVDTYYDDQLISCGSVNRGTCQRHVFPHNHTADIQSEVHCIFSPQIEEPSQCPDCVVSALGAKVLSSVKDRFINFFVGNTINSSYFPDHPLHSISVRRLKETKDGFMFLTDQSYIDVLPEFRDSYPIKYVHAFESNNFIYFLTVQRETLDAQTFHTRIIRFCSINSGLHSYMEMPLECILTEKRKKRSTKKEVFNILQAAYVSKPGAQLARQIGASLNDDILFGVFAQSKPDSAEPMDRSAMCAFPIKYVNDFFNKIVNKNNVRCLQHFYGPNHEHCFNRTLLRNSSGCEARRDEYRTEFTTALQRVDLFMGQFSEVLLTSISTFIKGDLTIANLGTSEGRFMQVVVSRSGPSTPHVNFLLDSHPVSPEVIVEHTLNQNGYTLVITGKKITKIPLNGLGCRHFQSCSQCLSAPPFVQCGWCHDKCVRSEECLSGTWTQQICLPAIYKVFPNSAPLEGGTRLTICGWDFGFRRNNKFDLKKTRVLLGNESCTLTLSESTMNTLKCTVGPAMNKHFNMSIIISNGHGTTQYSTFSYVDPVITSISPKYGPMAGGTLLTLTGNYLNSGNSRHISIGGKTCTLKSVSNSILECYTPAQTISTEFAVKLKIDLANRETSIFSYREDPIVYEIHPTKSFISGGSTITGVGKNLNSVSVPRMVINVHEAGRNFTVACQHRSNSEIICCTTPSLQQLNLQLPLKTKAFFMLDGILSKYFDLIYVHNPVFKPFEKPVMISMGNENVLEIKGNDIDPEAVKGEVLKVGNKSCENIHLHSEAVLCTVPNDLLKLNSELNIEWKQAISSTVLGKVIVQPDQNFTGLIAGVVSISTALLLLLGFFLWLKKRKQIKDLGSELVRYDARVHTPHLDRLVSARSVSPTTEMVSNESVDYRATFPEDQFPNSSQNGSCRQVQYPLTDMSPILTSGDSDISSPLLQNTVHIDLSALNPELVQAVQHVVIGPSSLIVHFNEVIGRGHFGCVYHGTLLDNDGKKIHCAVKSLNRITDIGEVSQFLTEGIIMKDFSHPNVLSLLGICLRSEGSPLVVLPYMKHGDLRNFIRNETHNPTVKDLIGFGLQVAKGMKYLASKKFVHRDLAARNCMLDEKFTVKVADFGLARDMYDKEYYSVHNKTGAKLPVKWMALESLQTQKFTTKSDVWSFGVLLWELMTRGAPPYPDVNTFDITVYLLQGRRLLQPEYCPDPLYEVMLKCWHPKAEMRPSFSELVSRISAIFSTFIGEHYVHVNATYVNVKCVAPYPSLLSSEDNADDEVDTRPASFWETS

[6] = biological target: ALK tyrosine kinase receptor (Homo sapiens, UniProt Q9UM73, L1196M)
[7] = biological target: ALK tyrosine kinase receptor (Homo sapiens, UniProt Q9UM73, C1156Y)
[8] = biological target: ALK tyrosine kinase receptor (Homo sapiens, UniProt Q9UM73, T1151INS)
[9] = test system: ALK tyrosine kinase receptor (Homo sapiens), Q9UM73 [L1196M]
[10] = test system: ALK tyrosine kinase receptor (Homo sapiens), Q9UM73 [G1202R]
[11] = test system: KARPAS-299; assay: Induction of apoptosis in human KARPAS299 cells harboring NPM-ALK after 24 hrs by acridine orange/ethidium bromide staining based fluorescence microscopic method; format: functional, cell-based
[12] = test system: HCC78; assay: Induction of apoptosis in human HCC78 cells harboring SLC34A2-ROS1 after 24 hrs by acridine orange/ethidium bromide staining based fluorescence microscopic method; format: functional, cell-based
[13] = biological target: T1, ALK tyrosine kinase receptor; assay: Inhibition of ALK phosphorylation in human KARPAS299 cells after 6 hrs by Western blot method; format: cell-based
[14] = test system: KARPAS-299; assay: Downregulation of ALK protein expression in human KARPAS299 cells after 6 hrs by Western blot method; format: functional, cell-based
[15] = test system: HCC78; assay: Downregulation of ROS1 protein expression in human HCC78 cells at 100 nM after 6 hrs by Western blot method; format: functional, cell-based
[16] = biological target: T2, Proto-oncogene tyrosine-protein kinase ROS; assay: Inhibition of ROS1 phosphorylation in human HCC78 cells at 100 nM after 6 hrs by Western blot method; format: cell-based
[17] = biological target: Epidermal growth factor receptor (Homo sapiens, UniProt P00533)
Sequence of Epidermal growth factor receptor (P00533 whole entry): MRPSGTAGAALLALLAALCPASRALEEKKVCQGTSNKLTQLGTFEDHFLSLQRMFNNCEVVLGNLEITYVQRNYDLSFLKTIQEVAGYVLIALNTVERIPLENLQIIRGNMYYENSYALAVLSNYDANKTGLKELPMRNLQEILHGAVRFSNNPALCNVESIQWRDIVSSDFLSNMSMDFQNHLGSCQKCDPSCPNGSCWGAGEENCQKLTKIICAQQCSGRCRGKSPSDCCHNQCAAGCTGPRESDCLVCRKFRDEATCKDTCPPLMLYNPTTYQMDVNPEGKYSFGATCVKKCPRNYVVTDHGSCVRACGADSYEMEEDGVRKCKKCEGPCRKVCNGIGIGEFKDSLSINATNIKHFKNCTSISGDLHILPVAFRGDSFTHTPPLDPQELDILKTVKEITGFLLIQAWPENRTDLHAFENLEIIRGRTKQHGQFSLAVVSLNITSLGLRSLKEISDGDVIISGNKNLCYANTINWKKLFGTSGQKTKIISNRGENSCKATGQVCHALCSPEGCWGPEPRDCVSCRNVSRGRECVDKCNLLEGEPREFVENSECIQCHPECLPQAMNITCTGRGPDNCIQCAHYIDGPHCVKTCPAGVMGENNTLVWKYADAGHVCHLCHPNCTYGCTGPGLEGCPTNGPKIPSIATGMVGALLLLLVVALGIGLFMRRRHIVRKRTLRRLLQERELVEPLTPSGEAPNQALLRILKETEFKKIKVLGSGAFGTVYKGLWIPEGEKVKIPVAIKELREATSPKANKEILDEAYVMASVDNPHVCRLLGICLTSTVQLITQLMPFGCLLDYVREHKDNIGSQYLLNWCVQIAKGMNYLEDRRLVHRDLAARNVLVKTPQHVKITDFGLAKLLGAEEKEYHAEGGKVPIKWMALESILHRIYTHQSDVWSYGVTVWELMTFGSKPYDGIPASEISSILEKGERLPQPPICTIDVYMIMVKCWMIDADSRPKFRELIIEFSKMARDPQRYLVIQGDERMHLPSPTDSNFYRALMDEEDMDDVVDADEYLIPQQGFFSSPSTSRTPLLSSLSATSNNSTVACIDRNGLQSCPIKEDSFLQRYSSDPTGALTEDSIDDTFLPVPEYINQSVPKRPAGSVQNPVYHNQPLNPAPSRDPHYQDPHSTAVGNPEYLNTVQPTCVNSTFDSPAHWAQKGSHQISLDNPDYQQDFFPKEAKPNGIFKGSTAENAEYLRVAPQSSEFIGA
Description: Inhibition of recombinant human N-terminal GST-tagged EGFR cytoplasmic domain (669 to 1210 residues) expressed in baculovirus expression system using peptide substrate after 1 hr by mobility shift assay

[18] = biological target: ALK tyrosine kinase receptor (Homo sapiens, UniProt Q9UM73, G1269A)
[19] = biological target: ALK tyrosine kinase receptor (Homo sapiens, UniProt Q9UM73, G1202R)
[20] = biological target: ALK tyrosine kinase receptor (Homo sapiens, UniProt Q9UM73, S1206Y)
[21] = test system: NCI-H2228; assay: cells; details: Homo sapiens, NCI-H2228, 72 h
Description: Antiproliferative activity against human NCI-H2228 cells harboring EML4-ALK after 72 hrs by MTT assay

[22] = test system: A549; assay: cells; details: Homo sapiens, A549, 72 h
Description: Antiproliferative activity against human A549 cells harboring EGFR after 72 hrs by MTT assay

[23] = test system: NCI-H460; assay: cells; details: Homo sapiens, NCI-H460, 72 h
Description: Antiproliferative activity against human NCI-H460 cells after 72 hrs by MTT assay

COc1cc(-n2cc(CN3CCN(C)CC3)nn2)ccc1Nc1ncc(Cl)c(Nc2ccccc2S(=O)(=O)C(C)C)n1
IC50 [1]: 21 nM | IC50 [2]: 40 nM | IC50 [3]: 1.4 nM | IC50 [4]: 1.1 nM | IC50 [5]: > 1000 nM | IC50 [6]: 3.1 nM | IC50 [7]: 3 nM | IC50 [8]: 2.3 nM | Ratio IC50 [9]: 11 | Ratio IC50 [10]: 10 | Activity [11]: Dose-dependent effect | Activity [12]: Dose-dependent effect | inhibition [13]: Dose-dependent effect | Activity [14]: Dose-dependent effect | Activity [15]: Active | inhibition [16]: Active | IC50 [17]: > 1000 nM | IC50 [18]: 2.8 nM | IC50 [19]: 8.7 nM | IC50 [20]: 4.6 nM | IC50 [21]: 95 nM | IC50 [22]: > 1000 nM | IC50 [23]: > 1000 nM
